The term EC50 denotes the concentration giving half of the maximal effect. The Emax is the size of the effect at its maximum, as opposed to the concentration needed.

Common to all, as to type: biochemical
For test [1], the target named is T1, κ opioid receptor (Homo sapiens (Human), UniProt P41145). Description: κ-opioid receptor [35S]GTPγS functional assay, HEK-293 or CHO cells. The following applies: for EC50: GTPγS; for Emax: relative to U69,593. On the procedure: (§1) κ-Opioid Receptor Functional Assay Procedures: Functional [^35S]GTPγS binding assays were conducted as follows. κ opioid receptor membrane solution was prepared by sequentially adding final concentrations of 0.026 μg/μl κ membrane protein (in-house), 10 μg/mL saponin, 3 μM GDP and 0.20 nM [^35S]GTPγS to binding buffer (100 mM NaCl, 10 mM MgCl2, 20 mM HEPES, pH 7.4) on ice. The prepared membrane solution (190 μl/well) was transferred to 96-shallow well polypropylene plates containing 10 μl of 20× concentrated stock solutions of agonist prepared in DMSO. Plates were incubated for 30 min at a temperature of about 25° C. with shaking. Reactions were terminated by rapid filtration onto 96-well Unifilter GF/B filter plates (Perkin Elmer, Shelton, Conn.) using a 96-well tissue harvester (Packard) and followed by three filtration washes with 200 μl ice-cold binding buffer (10 mM NaH2PO4, 10 mM Na2HPO4, pH 7.4). Filter plates were subsequently dried at 50° C. for 2-3 hours. Fifty μl/well scintillation cocktail (Perkin Elmer, Shelton, Conn.) was added and plates were counted in a Packard Top-Count for 1 min/well.
(§2) κ-Oploid Receptor Functional Data: κ GTP EC50 is the concentration of a compound providing 50% of the maximal response for the compound at a K receptor.
(§3) κ GTP Emax (%) is the maximal effect elicited by a compound relative to the effect elicited by U69,593.
(§4) In TABLE 2, activity response of certain Compounds of the Invention to the μ-, δ- and κ-opioid receptors was determined as described above for functional assays using HEK-293 or CHO cells.

A further test deals with δ opioid receptor (Homo sapiens (Human), UniProt P41143). Description: δ-opioid receptor [35S]GTPγS functional assay, HEK-293 or CHO cells. The settings on record: for EC50: GTPγS; for Emax: relative to met-enkephalin. The procedure:
δ-Opioid Receptor Functional Assay Procedures: Functional [^35S]GTPγS binding assays were conducted as follows. 5 opioid receptor membrane solution was prepared by sequentially adding final concentrations of […] δ membrane protein (Perkin Elmer, Shelton, Conn.), 10 μg/mL saponin, 3 µM GDP and 0.20 nM [^35S]GTPγS to binding buffer (100 mM NaCl, 10 mM MgCl2, 20 mM HEPES, pH 7.4) on ice. The prepared membrane solution ([…]) was transferred to 96-shallow well polypropylene plates containing 10 μl of 20× concentrated stock solutions of agonist prepared in DMSO. Plates were incubated for 30 min at a temperature of about 25° C. with shaking. Reactions were terminated by rapid filtration onto 96-well Unifilter GF/B filter plates (Perkin Elmer, Shelton, Conn.) using a 96-well tissue harvester (Packard) and followed by three filtration washes with 200 μl ice-cold binding buffer (10 mM NaH2PO4, 10 mM Na2HPO4, pH 7.4). Filter plates were subsequently dried at 50° C. for 1-2 hours. Fifty μl/well scintillation cocktail (Perkin Elmer, Shelton, Conn.) was added and plates were counted in a Packard Top-count for 1 min/well.
δ-Oploid Receptor Functional Data: δ GTP EC50 is the concentration of a compound providing 50% of the maximal response for the compound at a δ receptor.
δ GTP Emax (%) is the maximal effect elicited by a compound relative to the effect elicited by met-enkephalin.
as §4
A general note: Binding of GTPγS marks nucleotide exchange on a G protein.

In the next test the target is μ-opioid receptor (Homo sapiens (Human), UniProt P35372). Description: μ-opioid receptor [35S]GTPγS functional assay, U-2 OS cells. The settings on record: for EC50: GTPγS; for Emax: relative to DAMGO. On the procedure: μ-Opioid Receptor Functional Assay Procedures: [^35S]GTPγS functional assays were conducted using freshly thawed μ-receptor membranes prepared in-house from a cell line expressing recombinant μ opioid receptor in a HEK-293, CHO or U-2 OS cell background, or purchased from a commercial source (Perkin Elmer, Shelton, Conn.; or DiscovRx, Fremont, Calif.). Assay reactions were prepared by sequentially adding the following reagents to binding buffer (100 mM NaCl, 10 mM MgCl2, 20 mM HEPES, pH 7.4) on ice (final concentrations indicated): membrane protein (0.026 mg/mL), saponin ([…]), GDP ([…]) and [^35S]GTPγS (0.20 nM; Perkin Elmer, Shelton, Conn.). The prepared membrane solution (190 μl/well) was transferred to 96-shallow well polypropylene plates containing 10 μl of 20× concentrated stock solutions of the agonist [D-Ala^2, N-methyl-Phe^4 Gly-ol^5]-enkephalin (DAMGO) prepared in dimethyl sulfoxide (DMSO). Plates were incubated for 30 min at about 25° C. with shaking. Reactions were terminated by rapid filtration onto 96-well Unifilter GF/B filter plates (Perkin Elmer, Shelton, Conn.) using a 96-well tissue harvester (Perkin Elmer, Shelton, Conn.) followed by three filtration washes with 200 μl of ice-cold wash buffer (10 mM NaH2PO4, 10 mM Na2HPO4, pH 7.4). Filter plates were subsequently dried at 50° C. for 2-3 hours. BetaScint scintillation cocktail (Perkin Elmer, Shelton, Conn.) was added (50 μl/well) and plates were counted using a Packard Top-Count for 1 min/well. Data were analyzed using the sigmoidal dose-response curve fitting functions in GraphPad PRISM v. 3.0, or an in-house function for non-linear, sigmoidal dose-response curve-fitting.
μ-Opioid Receptor Functional Data: μ GTP EC50 is the concentration of a compound providing 50% of the maximal response for the compound at a μ-opioid receptor.
μ GTP Emax (%) is the maximal effect elicited by a compound relative to the effect elicited by DAMGO, a standard μ agonist. Generally, the μ GTP Emax (%) value measures the efficacy of a compound to treat or prevent pain or other Conditions.
(§5) The following TABLE 3 provides results on the activity response of certain Compounds of the Invention at the μ- and κ-opioid receptors determined as described above using U-2 OS cells.

In test [2] the target is T1, κ opioid receptor. Put plainly: κ-opioid receptor [35S]GTPγS functional assay, U-2 OS cells. The following applies: for EC50: GTPγS; for Emax: relative to U69,593. On the procedure: as §1, §2, §3, §5

Sequence of δ opioid receptor (P41143 whole entry, looked up): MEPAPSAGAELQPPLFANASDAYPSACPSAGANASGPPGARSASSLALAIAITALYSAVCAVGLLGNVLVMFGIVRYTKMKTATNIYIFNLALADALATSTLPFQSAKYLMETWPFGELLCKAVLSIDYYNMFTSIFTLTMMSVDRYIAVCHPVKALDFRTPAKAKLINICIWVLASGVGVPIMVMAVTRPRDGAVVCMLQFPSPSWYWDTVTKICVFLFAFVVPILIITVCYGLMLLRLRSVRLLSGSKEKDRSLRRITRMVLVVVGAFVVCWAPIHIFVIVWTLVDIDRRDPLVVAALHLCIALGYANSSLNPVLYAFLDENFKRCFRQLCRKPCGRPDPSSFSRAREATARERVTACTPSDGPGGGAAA

On to `NC(=O)CN1C[C@H]2[C@H]3Cc4ccc(O)cc4[C@@]2(CCN3CC2CC2)CC1=O` [Compound 4, 2-((4aS,5R,10bS)— 13-(cyclopropylmethyl)-9-hydroxy-2-oxo-4,4-a,5,6-tetrahydro-1H-5,10b-(epiminoethano)benzo[f]isoquinolin-3(2H)-yl)acetamide], for which the EC50 is 80.8 ± 5.95 nM on κ opioid receptor [1], 9.06 ± 0.94 nM on δ opioid receptor, 7.05 ± 0.17 nM at μ-opioid receptor and 1.65 ± 0.054 nM at κ opioid receptor [2]. The Emax came to 62% on κ opioid receptor [1], 109 ± 3.28% at δ opioid receptor, 39 ± 3.51% at μ-opioid receptor and 104 ± 2.6% on κ opioid receptor [2].
`O=C1C[C@]23CCN(CC4CC4)[C@H](Cc4ccc(O)cc42)[C@@H]3CN1Cc1ccc(O)cc1` [Compound 5, (4aS,5R,10bS)-13-(cyclopropylmethyl)-9-hydroxy-3-(4-hydroxybenzyl)-4,4-a,5,6-tetrahydro-1H-5,10b-(epiminoethano)benzo[f]isoquinolin-2(3H)-one]: the EC50 on κ opioid receptor [1] was 102 ± 19.9 nM; at δ opioid receptor, 4.39 ± 0.93 nM. Moreover, the figures for the Emax at κ opioid receptor [1] and on δ opioid receptor were 42% and 71 ± 6.08%, respectively.
`O=C1C[C@]23CCN(CC4CC4)[C@H](Cc4ccc(O)cc42)[C@@H]3CN1` [Compound 7, (4aS,5R,10bS)-13-(cyclopropylmethyl)-9-hydroxy-4,4-a,5,6-tetrahydro-1H-5,10b-(epiminoethano)benzo[f]isoquinolin-2(3H)-one]: the EC50 at κ opioid receptor [1] is 5.1 ± 1.62 nM; on δ opioid receptor it was 8.7 ± 1.25 nM; on μ-opioid receptor it was 3.43 ± 0.43 nM; on κ opioid receptor [2] it was 0.21 ± 0.014 nM. For the same molecule, the Emax on κ opioid receptor [1] was determined as 74.7%; on δ opioid receptor, 85.7 ± 6.89%; on μ-opioid receptor it was 40.7 ± 3.18%; at κ opioid receptor [2] it was 106 ± 1.53%.
For `O=C(O)CN1C[C@H]2[C@H]3Cc4ccc(O)cc4[C@@]2(CCN3CC2CC2)CC1=O` [Compound 8, 2-((4aS,5R,10bS)-13-(cyclopropylmethyl)-9-hydroxy-2-oxo-4,4-a,5,6-tetrahydro-1H-5,10b-(epiminoethano)benzo[f]isoquinolin-3(2H)-yl)acetic acid], on κ opioid receptor [1], the EC50 was determined as 14.9 ± 2.71 nM and the Emax amounted to 66%. At δ opioid receptor, this molecule returned an EC50 of 2.41 ± 0.29 nM and an Emax of 110 ± 3.11%.
On κ opioid receptor [1], `Oc1ccc2c(c1)[C@@]13CCNC[C@H]1[C@@H](C2)N(CC1CC1)CC3` [Compound 13, (4aS,5R,10bR)-13-(cyclopropylmethyl)-2,3,4,4a,5,6-hexahydro-1H-5,10b-(epiminoethano)benzo[f]isoquinolin-9-ol] had an EC50 of 29.5 ± 14.8 nM and an Emax of 78.3%. At δ opioid receptor, this molecule came in with an EC50 of 36.5 ± 11.1 nM and an Emax of 83.3 ± 1.45%.

Source of the values: US8937084B2, “Nitrogen containing morphinan derivatives and the use thereof” (Purdue Pharma L.P., priority 2012, dated 2015).
